{"source": "patent US11919867B1", "about": "“5-(4,5-bis(4-bromophenyl)-2-(4-methoxyphenyl)-1H-imidazol-1-yl)pentanoic acid as an antimicrobial compound” (KING FAISAL UNIVERSITY, priority 2023, dated 2024)", "type_in_all_cases": "cell-based", "key": {"Bacillus cereus": {"test_system": "Bacillus cereus", "test": "Agar plate disc-diffusion, antibacterial inhibition zone", "settings": "nutrient agar, 37° C., 48 hours, DMSO control zone subtracted", "procedure": "(§1) The agar plate disc-diffusion method was applied. […] The discs were then placed onto the surface of agar plates (nutrient agar for bacteria and Sabouraud's dextrose agar for fungi) seeded with the test organism. Each plate contained 15 mL of the agar medium, previously seeded with 0.2 mL of the broth culture of each organism pregrown for 18 hours. The plates were incubated at 37° C. for 48 hours, and 72 hours for fungi. The inhibition zones was measured in mm. Discs impregnated with DMSO were used as a control, and its inhibition zone was subtracted from the tested compound actual inhibition zone."}, "Escherichia coli": {"test_system": "Escherichia coli", "test": "Agar plate disc-diffusion, antibacterial inhibition zone", "settings": "nutrient agar, 37° C., 48 hours, DMSO control zone subtracted", "procedure": "as §1"}, "Pseudomonas aeruginosa": {"test_system": "Pseudomonas aeruginosa", "test": "Agar plate disc-diffusion, antibacterial inhibition zone", "settings": "nutrient agar, 37° C., 48 hours, DMSO control zone subtracted", "procedure": "as §1"}, "Staphylococcus aureus": {"test_system": "Staphylococcus aureus", "test": "Agar plate disc-diffusion, antibacterial inhibition zone", "settings": "nutrient agar, 37° C., 48 hours, DMSO control zone subtracted", "procedure": "as §1"}, "Aspergillus flavus": {"test_system": "Aspergillus flavus", "test": "Agar plate disc-diffusion, antifungal inhibition zone", "settings": "Sabouraud's dextrose agar, 72 hours, DMSO control zone subtracted", "procedure": "as §1"}, "[1]": {"test_system": "Chrysosporium keratinophilum", "test": "Agar plate disc-diffusion, antifungal inhibition zone", "settings": "Sabouraud's dextrose agar, 72 hours, DMSO control zone subtracted", "procedure": "as §1"}, "[2]": {"settings": "A = concentration of comp. = 10,000 μL"}, "[3]": {"settings": "B = concentration of comp. = 30,000 μL"}, "[4]": {"settings": "C = concentration of comp. = 50,000 μL"}}, "data": [{"compound": "COc1ccc(-c2nc(-c3ccc(Br)cc3)c(-c3ccc(Br)cc3)n2CCCCC(=O)O)cc1", "note": "[V, 5-(4,5-bis(4-bromophenyl)-2-(4-methoxyphenyl)-1H-imidazol-1-yl)pentanoic acid]", "values": [{"measurement": "inhibition zone, Bacillus Cereus, A", "setting": "Bacillus cereus; [2]", "result": 28, "unit": "mm"}, {"measurement": "inhibition zone, Bacillus Cereus, B", "setting": "Bacillus cereus; [3]", "result": 29, "unit": "mm"}, {"measurement": "inhibition zone, Bacillus Cereus, C", "setting": "Bacillus cereus; [4]", "result": 39, "unit": "mm"}, {"measurement": "inhibition zone, Escherichia coli, A", "setting": "Escherichia coli; [2]", "result": 30, "unit": "mm"}, {"measurement": "inhibition zone, Escherichia coli, B", "setting": "Escherichia coli; [3]", "result": 40, "unit": "mm"}, {"measurement": "inhibition zone, Escherichia coli, C", "setting": "Escherichia coli; [4]", "result": 55, "unit": "mm"}, {"measurement": "inhibition zone, Pseudomonas aeruginosa, A", "setting": "Pseudomonas aeruginosa; [2]", "result": 26, "unit": "mm"}, {"measurement": "inhibition zone, Pseudomonas aeruginosa, B", "setting": "Pseudomonas aeruginosa; [3]", "result": 29, "unit": "mm"}, {"measurement": "inhibition zone, Pseudomonas aeruginosa, C", "setting": "Pseudomonas aeruginosa; [4]", "result": 40, "unit": "mm"}, {"measurement": "inhibition zone, Staphylococcus aureus, A", "setting": "Staphylococcus aureus; [2]", "result": 15, "unit": "mm"}, {"measurement": "inhibition zone, Staphylococcus aureus, B", "setting": "Staphylococcus aureus; [3]", "result": 22, "unit": "mm"}, {"measurement": "inhibition zone, Staphylococcus aureus, C", "setting": "Staphylococcus aureus; [4]", "result": 31, "unit": "mm"}, {"measurement": "inhibition zone, Aspergillus flavus, A", "setting": "Aspergillus flavus; [2]", "result": 22, "unit": "mm"}, {"measurement": "inhibition zone, Aspergillus flavus, B", "setting": "Aspergillus flavus; [3]", "result": 25, "unit": "mm"}, {"measurement": "inhibition zone, Aspergillus flavus, C", "setting": "Aspergillus flavus; [4]", "result": 33, "unit": "mm"}, {"measurement": "inhibition zone, Chrysosporium keratinophilum, A", "setting": "[1]; [2]", "result": 26, "unit": "mm"}, {"measurement": "inhibition zone, Chrysosporium keratinophilum, B", "setting": "[1]; [3]", "result": 27, "unit": "mm"}, {"measurement": "inhibition zone, Chrysosporium keratinophilum, C", "setting": "[1]; [4]", "result": 45, "unit": "mm"}]}]}
